Measured values: patent US20230372433A1, “NANOPARTICLE FOR ANTI-CANCER PEPTIDES AND USES THEREOF” (KING'S COLLEGE LONDON, priority 2020, published 2023)
Read-outs that look alike come from different tables or passages of the source. [ ]: non-standard residue; d: D form.

How the values were obtained:
[1] = test system: HMLER (human breast cancer bulk cell); test: MTT cytotoxicity assay, HMLER; assay type: cell-based; conditions: read-out: IC50 HMLER
[2] = test system: HMLER-shEcad (human breast cancer stem cell); test: MTT cytotoxicity assay, HMLER-shEcad; assay type: cell-based
[3] = test system: MCF-10A (human breast epithelial cell); test: cells; conditions: read-out: IC50 MCF-10A
[4] = test system: U2OS (human bone osteosarcoma); test: MTT cytotoxicity assay, U2OS; assay type: cell-based; conditions: 72 hr
[5] = test system: HEK293T (human embryonic kidney cell); test: MTT cytotoxicity assay, HEK293T; assay type: cell-based; conditions: read-out: IC50 HEK293T
[6] = test system: HMLER-shEcad mammospheres; test: Tumoursphere formation and viability assay; assay type: cell-based, human
[7] = test system: HMLER-shEcad cells; test: HMLER-shEcad viability with co-incubated necrostatin or z-VAD-FMK; assay type: cell-based, human
[8] = Tryptophan fluorescent binding assay, POPC vesicles; conditions: 50 μM peptide, PBS pH 7.4
Summary of the method: (§1)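 Tryptophan fluorescence was measured with peptide fixed at 50 μM and POPC or 3POPC/1POPG LUVs (100 nm extruded) titrated 0–5000 μM in PBS pH 7.4, read after 60 min. Excitation was 280 nm and emission 300–450 nm. The value is the lipid concentration giving 50% peptide binding, expressed as lipid per peptide.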

[9] = Tryptophan fluorescent binding assay, 3POPC/1POPG vesicles; conditions: 50 μM peptide, PBS pH 7.4
Summary of the method: as §1

[10] = ANTS/DPX liposome leakage assay, POPC vesicles; assay type: biochemical; conditions: 0.5 mM vesicles
Summary of the method: (§2)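 0.5 mM extruded 100 nm LUVs loaded with 5 mM ANTS/12.5 mM DPX were incubated 3 h with peptide at 0–20 μM in PBS pH 7.4 or HCl-adjusted PBS pH 4.8. Fluorescence read at ex 350/em 510 nm; 10% Triton set maximum leakage; values expressed as lipid per peptide.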

[11] = ANTS/DPX liposome leakage assay, 3POPC/1POPG vesicles; assay type: biochemical; conditions: for Peptide Concentration-induced 50% ANTS/DPX leakage at pH 4.8 (L/P) 3POPC/1POPG Vesicle / Peptide Concentration-induced 50% ANTS/DPX leakage at pH 7.4 (L/P) 3POPC/1POPG Vesicle: 0.5 mM vesicles
Summary of the method: as §2

[12] = test system: human red blood cells
Protocol: Peptides were serially diluted in PBS starting at a concentration of 100 μM. The final volume of peptide in each well was 50 μL. To each well, 50 μL of RBCs in PBS at 2×10^8 cells/mL was added. As a positive lysis control, 1% triton was used. The mixtures were incubated at 37° C. for 1 hour, after which they were centrifuged at 1000x g for 5 minutes. After centrifugation, 10 μL of supernatant was transferred to 90 μL of DI H2O in a fresh 96-well plate. The absorbance of released hemoglobin at 410 nm was recorded and the fractional hemolysis was calculated based on the 100% and 0% lysis controls.

[13] = 72 hr, MTT, read-out: IC50 HMLER-shEcad

| Molecule | Lipid Concentration-induced 50% Peptide Binding (L/P) POPC Vesicle [8] | Lipid Concentration-induced 50% Peptide Binding (L/P) 3POPC/1POPG Vesicle [9] | Peptide Concentration-induced 50% ANTS/DPX leakage at pH 4.8 (L/P) POPC Vesicle [10] | Peptide Concentration-induced 50% ANTS/DPX leakage at pH 7.4 (L/P) POPC Vesicle [10] | Peptide Concentration-induced 50% ANTS/DPX leakage at pH 4.8 (L/P) 3POPC/1POPG Vesicle ([11]; pH 4.8) | Peptide Concentration-induced 50% ANTS/DPX leakage at pH 7.4 (L/P) 3POPC/1POPG Vesicle [11] | IC50 ([1]; 72 hr, MTT) | IC50 [2, 13] | IC50 ([3]; 72 hr, MTT) | IC50 [4] | IC50 ([5]; 72 hr, MTT) | other results |
| --- | --- | --- | --- | --- | --- | --- | --- | --- | --- | --- | --- | --- |
| COc1cccc2c1C(=O)c1c(O)c3c(c(O)c1C2=O)C[C@@](O)(C(=O)CO)C[C@@H]3O[C@H]1C[C@H](N)[C@H](O)[C@H](C)O1 [Doxorubicin, reference compound] | – | – | – | – | – | – | – | – | – | – | – | IC50 ([1]; Homo sapiens, 72 hr, MTT): 2.5 nM; IC50 ([2]; Homo sapiens, 72 hr, MTT, read-out: IC50 HMLER-shEcad): 3 nM; IC50 ([2]; Homo sapiens, two-dimensional culture, read-out: IC50 against two-dimensional HMLER-shEcad): 2.5 ± 0.3 nM; IC50 ([3]; Homo sapiens, MCF-10A, 72 h): 640 nM; IC50 ([4]; Homo sapiens, U2OS): 15 nM; IC50 ([5]; Homo sapiens, HEK-293T, 72 hr, MTT): 0.11 nM; fold decrease in activity, mammospheres versus two-dimensional HMLER-shEcad [6]: 1,700 fold; cell viability on co-incubation with necrostatin or z-VAD-FMK [7]: can be dramatically improved |
| CC(C)C[C@H](NC(=O)CN)C(=O)N[C@@H](CC(C)C)C(=O)N[C@@H](CCC(=O)O)C(=O)N[C@@H](CC(C)C)C(=O)N[C@@H](CC(C)C)C(=O)N[C@@H](CCC(=O)O)C(=O)N[C@@H](CC(C)C)C(=O)N[C@@H](CC(C)C)C(=O)N[C@@H](CC(C)C)C(=O)N[C@@H](CCCCN)C(=O)N[C@@H](C)C(=O)N[C@@H](C)C(=O)NCC(=O)N[C@@H](Cc1c[nH]c2ccccc12)C(N)=O [EEK] | 0.48 L/P | 4.50 L/P | 39 L/P | 730 L/P | 386 L/P | 657 L/P | – | – | – | – | – | liposome leakage activity from anionic vesicle at pH 4.8 ([11]; compared with zwitterionic vesicle, pH 4.8): relatively higher liposome leakage activity; concentration below which minimal lysis is caused [12]: below 90 μM; cell viability on co-incubation with necrostatin or z-VAD-FMK [7]: cannot be improved |
| CC[C@@H](C(=O)[C@@H](C)[C@@H](O)[C@H](C)[C@@H]1O[C@@H]([C@@H](CC)C(=O)O)CC[C@@H]1C)[C@H]1O[C@]2(C=C[C@@H](O)[C@]3(CC[C@@](C)([C@H]4CC[C@](O)(CC)[C@H](C)O4)O3)O2)[C@H](C)C[C@@H]1C [Salinomycin, reference compound] | – | – | – | – | – | – | – | – | – | – | – | IC50 ([1]; Homo sapiens, 72 h): 370 ± 80 nM; IC50 ([2]; Homo sapiens, 72 h, read-out: IC50 HMLER-shEcad): 920 ± 280 nM; IC50 ([2]; Homo sapiens, read-out: IC50 against two-dimensional HMLER-shEcad): 370 ± 0.5 nM; IC50 ([3]; Homo sapiens, MCF-10A, 72 h): 9760 ± 2280 nM; IC50 ([5]; Homo sapiens, HEK-293T, 72 h): 410 ± 100 nM; fold decrease in activity, mammospheres versus two-dimensional HMLER-shEcad [6]: 63 fold; IC50 ([6]; Homo sapiens, read-out: IC50 in mammospheres): 22000 ± 5000 nM |
| D-form peptide of the selected sequence EEK (GLLELLELLLKAAGW) (H-G[dL][dL][dE][dL][dL][dE][dL][dL][dL][dK][dA][dA]G[dW]-NH2) [D-form EEK] | – | – | – | – | – | – | 290 ± 10 nM | 290 ± 10 nM | 1070 ± 100 nM | 4780 ± 20 nM | 2820 ± 70 nM | cell viability on co-incubation with necrostatin or z-VAD-FMK [7]: cannot be improved |
| GLLHLLKLLLKAAG [HKK] | 0.18 L/P | 0.14 L/P | 106 L/P | 657 L/P | 106 L/P | 90 L/P | 3400 ± 710 nM | 2600 ± 420 nM | 2180 ± 390 nM | 12230 ± 110 nM | 9500 ± 990 nM | – |
| GLLKLLELLLHAAG [KEH] | 1.00 L/P | 0.50 L/P | 188 L/P | 995 L/P | 68 L/P | 286 L/P | 3300 ± 420 nM | 2350 ± 70 nM | 20000 nM | 49200 ± 5300 nM | 5650 ± 70 nM | – |
| GLLKLLELLLKAAG [KEK] | 0.47 L/P | 0.50 L/P | 110 L/P | 1173 L/P | 126 L/P | 438 L/P | 1600 ± 140 nM | 1350 ± 70 nM | 1550 ± 70 nM | 8150 ± 490 nM | 3200 ± 140 nM | – |
| GLLKLLHLLLEAAG [KHE] | 0.88 L/P | 0.71 L/P | 183 L/P | 981 L/P | 156 L/P | 188 L/P | 3700 ± 140 nM | 2920 ± 170 nM | 20800 ± 5870 nM | 53000 ± 2830 nM | 26000 ± 2830 nM | – |
| GLLKLLHLLLHAAG [KHH] | 3.50 L/P | 0.94 L/P | 227 L/P | 1153 L/P | 48 L/P | 329 L/P | 5200 ± 710 nM | 4450 ± 490 nM | 10400 ± 490 nM | 39800 ± 5300 nM | 7750 ± 780 nM | – |
| GLLKLLHLLLKAAG [KHK] | 0.17 L/P | 0.38 L/P | 140 L/P | 1153 L/P | 53 L/P | 193 L/P | 2590 ± 920 nM | 1400 ± 140 nM | 1810 ± 50 nM | 12900 ± 1240 nM | 3550 ± 780 nM | – |
| GLLKLLKLLLEAAG [KKE] | 0.48 L/P | 0.44 L/P | 143 L/P | 1133 L/P | 131 L/P | 346 L/P | 2050 ± 640 nM | 1700 nM | 2900 ± 570 nM | 12800 ± 1200 nM | 4400 ± 140 nM | – |
| GLLKLLKLLLHAAG [KKH] | 0.83 L/P | 0.48 L/P | 164 L/P | 2119 L/P | 49 L/P | 227 L/P | 2400 ± 850 nM | 2200 ± 420 nM | 1750 ± 350 nM | 13300 ± 990 nM | 4000 ± 280 nM | – |
| GLLKLLKLLLKAAG [KKK] | 1.25 L/P | 1.70 L/P | 156 L/P | 1369 L/P | 81 L/P | 115 L/P | 1570 ± 240 nM | 1350 ± 400 nM | 1370 ± 240 nM | 9650 ± 1200 nM | 3700 ± 140 nM | – |
